Measured values: PMC5578999, “Novel quinolone chalcones targeting colchicine-binding pocket kill multidrug-resistant cancer cells by inhibiting tubulin activity and MRP1 function” (Scientific Reports, 2017)

Columns and labels:
Assay in all cases: NCI-60 SRB screen
Type in all cases: cell-based
OVCAR-8 = tested on: OVCAR-8
Description: (§1) Supplementary Figure l egend
(§2) 10μ M of CTR-20 was used to examine the drug’s efficac y against the NC I-60 cancer cell li nes including: six leukemia cell lines, nine non- small cell lung cancer cell lines, seven color ect al cancer cell lines, six CNS cancer cell lines, nine melanoma cell lines, seven ovari an can cer cell lines, seven ren al can cer cell lines, two prostate cancer cell lines and six breast cancer cell lines. The scr eenin g was car r ied out b y the US National Cancer Institute (NC I) us i n g a sulforhodamine B (SRB) colorimetric assay. […]
(§3) out by the NC I using five different doses of CTR -20.

T-47D = tested on: T-47D
Description: as §1, §2, §3

SF-268 = tested on: SF-268
Description: as §1, §2, §3

MALME-3M = tested on: MALME-3M
Description: as §1, §2, §3

SF-539 = tested on: SF-539
Description: as §1, §2, §3

SN12C = tested on: SN12C
Description: as §1, §2, §3

MDA-MB-231/ATCC = tested on: MDA-MB-231/ATCC
Description: as §1, §2, §3

MDA-MB-468 = tested on: MDA-MB-468
Description: as §1, §2, §3

DU-145 = tested on: DU-145
Description: as §1, §2, §3

HOP-92 = tested on: HOP-92
Description: as §1, §2, §3

UO-31 = tested on: UO-31
Description: as §1, §2, §3

786-0 = tested on: 786-0
Description: as §1, §2, §3

[1] = Homo sapiens, read-out: LC50 (the source's name)

Compound: COc1ccc2[nH]c(=O)c(/C=C/C(=O)c3ccccc3OC)cc2c1 [CTR-20, (E)-6-Methoxy-3-(3-(2-methoxyphenyl)-3-oxoprop-1-enyl) quinolin-2(1H)-one]
- Log10GI50 (OVCAR-8): -6.06 Molar
- Log10LC50 (OVCAR-8): -4.46 Molar
- Log10TGI (OVCAR-8): -4.94 Molar
- TGI (OVCAR-8): 1.16E-5 Molar
- Growth Percent (OVCAR-8; 1.00E-5 Molar): 1.18%
- GI50 (OVCAR-8; Homo sapiens): 0.874 µM
- CC50 (OVCAR-8; [1]): 34.4 µM
- Percent Growth (OVCAR-8; Log10 Concentration -4.0): -99%
- Percent Growth (OVCAR-8; Log10 Concentration -5.0): 7%
- Percent Growth (OVCAR-8; Log10 Concentration -6.0): 46%
- Percent Growth (OVCAR-8; Log10 Concentration -7.0): 109%
- Percent Growth (OVCAR-8; Log10 Concentration -8.0): 113%
- Log10GI50 (T-47D): -5.98 Molar
- Log10LC50 (T-47D): -4.32 Molar
- Log10TGI (T-47D): -4.93 Molar
- TGI (T-47D): 1.18E-5 Molar
- Growth Percent (T-47D; 1.00E-5 Molar): -2.02%
- GI50 (T-47D; Homo sapiens, T47D): 1.06 µM
- CC50 (T-47D; Homo sapiens, T47D, read-out: LC50 (the source's name)): 47.9 µM
- Percent Growth (T-47D; Log10 Concentration -4.0): -76%
- Percent Growth (T-47D; Log10 Concentration -5.0): 6%
- Percent Growth (T-47D; Log10 Concentration -6.0): 51%
- Percent Growth (T-47D; Log10 Concentration -7.0): 90%
- Percent Growth (T-47D; Log10 Concentration -8.0): 84%
- Log10GI50 (SF-268): -6.16 Molar
- Log10LC50 (SF-268): -4.15 Molar
- Log10TGI (SF-268): -4.98 Molar
- TGI (SF-268): 1.05E-5 Molar
- Growth Percent (SF-268; 1.00E-5 Molar): 9.36%
- GI50 (SF-268; Homo sapiens): 0.69 µM
- CC50 (SF-268; [1]): 70.4 µM
- Percent Growth (SF-268; Log10 Concentration -4.0): -59%
- Percent Growth (SF-268; Log10 Concentration -5.0): 1%
- Percent Growth (SF-268; Log10 Concentration -6.0): 42%
- Percent Growth (SF-268; Log10 Concentration -7.0): 93%
- Percent Growth (SF-268; Log10 Concentration -8.0): 92%
- GI50 (MALME-3M; Homo sapiens, Malme-3M): 0.766 µM
- CC50 (MALME-3M; Homo sapiens, Malme-3M, read-out: LC50 (the source's name)): 30.3 µM
- Log10GI50 (MALME-3M; MALME-3M): -6.12 Molar
- Log10LC50 (MALME-3M; MALME-3M): -4.52 Molar
- Log10TGI (MALME-3M; MALME-3M): -5.09 Molar
- TGI (MALME-3M; MALME-3M): 8.09E-6 Molar
- Growth Percent (MALME-3M; MALME-3M, 1.00E-5 Molar): 38.55%
- Percent Growth (MALME-3M; MALME-3M, Log10 Concentration -4.0): -99%
- Percent Growth (MALME-3M; MALME-3M, Log10 Concentration -5.0): -5%
- Percent Growth (MALME-3M; MALME-3M, Log10 Concentration -6.0): 46%
- Percent Growth (MALME-3M; MALME-3M, Log10 Concentration -7.0): 81%
- Percent Growth (MALME-3M; MALME-3M, Log10 Concentration -8.0): 92%
- Log10GI50 (SF-539): -6.35 Molar
- Log10LC50 (SF-539): -4.87 Molar
- Log10TGI (SF-539): -5.60 Molar
- TGI (SF-539): 2.49E-6 Molar
- Growth Percent (SF-539; 1.00E-5 Molar): -10.00%
- GI50 (SF-539; Homo sapiens): 0.443 µM
- LC50 (concentration killing 50% of starting cells) (SF-539; Homo sapiens): 13.4 µM
- Percent Growth (SF-539; Log10 Concentration -4.0): -99%
- Percent Growth (SF-539; Log10 Concentration -5.0): -43%
- Percent Growth (SF-539; Log10 Concentration -6.0): 28%
- Percent Growth (SF-539; Log10 Concentration -7.0): 90%
- Percent Growth (SF-539; Log10 Concentration -8.0): 90%
- Log10GI50 (SN12C): -6.27 Molar
- Log10LC50 (SN12C): -4.44 Molar
- Log10TGI (SN12C): -4.99 Molar
- TGI (SN12C): 1.03E-5 Molar
- Growth Percent (SN12C; 1.00E-5 Molar): 8.57%
- GI50 (SN12C; Homo sapiens): 0.537 µM
- CC50 (SN12C; [1]): 36.7 µM
- Percent Growth (SN12C; Log10 Concentration -4.0): -89%
- Percent Growth (SN12C; Log10 Concentration -5.0): 1%
- Percent Growth (SN12C; Log10 Concentration -6.0): 32%
- Percent Growth (SN12C; Log10 Concentration -7.0): 100%
- Percent Growth (SN12C; Log10 Concentration -8.0): 102%
- Log10GI50 (MDA-MB-231/ATCC): -5.84 Molar
- Log10LC50 (MDA-MB-231/ATCC): -4.40 Molar
- Log10TGI (MDA-MB-231/ATCC): -4.96 Molar
- TGI (MDA-MB-231/ATCC): 1.10E-5 Molar
- Growth Percent (MDA-MB-231/ATCC; 1.00E-5 Molar): 0.32%
- GI50 (MDA-MB-231/ATCC; Homo sapiens): 1.44 µM
- CC50 (MDA-MB-231/ATCC; [1]): 39.6 µM
- Percent Growth (MDA-MB-231/ATCC; Log10 Concentration -4.0): -86%
- Percent Growth (MDA-MB-231/ATCC; Log10 Concentration -5.0): 4%
- Percent Growth (MDA-MB-231/ATCC; Log10 Concentration -6.0): 59%
- Percent Growth (MDA-MB-231/ATCC; Log10 Concentration -7.0): 102%
- Percent Growth (MDA-MB-231/ATCC; Log10 Concentration -8.0): 102%
- Log10GI50 (MDA-MB-468): -6.47 Molar
- Log10LC50 (MDA-MB-468): -4.40 Molar
- Log10TGI (MDA-MB-468): -5.78 Molar
- TGI (MDA-MB-468): 1.65E-6 Molar
- Growth Percent (MDA-MB-468; 1.00E-5 Molar): 16.65%
- GI50 (MDA-MB-468; Homo sapiens): 0.336 µM
- CC50 (MDA-MB-468; [1]): 40.1 µM
- Percent Growth (MDA-MB-468; Log10 Concentration -4.0): -68%
- Percent Growth (MDA-MB-468; Log10 Concentration -5.0): -22%
- Percent Growth (MDA-MB-468; Log10 Concentration -6.0): 6%
- Percent Growth (MDA-MB-468; Log10 Concentration -7.0): 99%
- Percent Growth (MDA-MB-468; Log10 Concentration -8.0): 99%
- Log10GI50 (DU-145): -6.28 Molar
- Log10LC50 (DU-145): -5.26 Molar
- Log10TGI (DU-145): -5.71 Molar
- TGI (DU-145): 1.96E-6 Molar
- Growth Percent (DU-145; 1.00E-5 Molar): 10.76%
- GI50 (DU-145; Homo sapiens): 0.529 µM
- CC50 (DU-145; [1]): 5.47 µM
- Percent Growth (DU-145; Log10 Concentration -4.0): -93%
- Percent Growth (DU-145; Log10 Concentration -5.0): -79%
- Percent Growth (DU-145; Log10 Concentration -6.0): 33%
- Percent Growth (DU-145; Log10 Concentration -7.0): 95%
- Percent Growth (DU-145; Log10 Concentration -8.0): 98%
- Log10GI50 (HOP-92): -5.80 Molar
- Log10LC50 (HOP-92): -4.57 Molar
- Log10TGI (HOP-92): -5.21 Molar
- TGI (HOP-92): 6.17E-6 Molar
- Growth Percent (HOP-92; 1.00E-5 Molar): -11.97%
- GI50 (HOP-92; Homo sapiens): 1.57 µM
- LC50 (HOP-92; Homo sapiens): 27 µM
- Percent Growth (HOP-92; Log10 Concentration -4.0): -92%
- Percent Growth (HOP-92; Log10 Concentration -5.0): -18%
- Percent Growth (HOP-92; Log10 Concentration -6.0): 67%
- Percent Growth (HOP-92; Log10 Concentration -7.0): 111%
- Percent Growth (HOP-92; Log10 Concentration -8.0): 107%
- Log10GI50 (UO-31): -6.02 Molar
- Log10LC50 (UO-31): -5.28 Molar
- Log10TGI (UO-31): -5.64 Molar
- TGI (UO-31): 2.28E-6 Molar
- Growth Percent (UO-31; 1.00E-5 Molar): 23.62%
- GI50 (UO-31; Homo sapiens): 0.958 µM
- CC50 (UO-31; [1]): 5.27 µM
- Percent Growth (UO-31; Log10 Concentration -4.0): -100%
- Percent Growth (UO-31; Log10 Concentration -5.0): -88%
- Percent Growth (UO-31; Log10 Concentration -6.0): 49%
- Percent Growth (UO-31; Log10 Concentration -7.0): 81%
- Percent Growth (UO-31; Log10 Concentration -8.0): 87%
- Log10GI50 (786-0): -6.42 Molar
- Log10LC50 (786-0): -5.29 Molar
- Log10TGI (786-0): -5.81 Molar
- TGI (786-0): 1.56E-6 Molar
- Growth Percent (786-0; 1.00E-5 Molar): 8.21%
- GI50 (786-0; Homo sapiens): 0.378 µM
- CC50 (786-0; [1]): 5.11 µM
- Percent Growth (786-0; Log10 Concentration -4.0): -97%
- Percent Growth (786-0; Log10 Concentration -5.0): -78%
- Percent Growth (786-0; Log10 Concentration -6.0): 19%
- Percent Growth (786-0; Log10 Concentration -7.0): 93%
- Percent Growth (786-0; Log10 Concentration -8.0): 91%
